Experimental data reported in article PMC5428013, “Peptide-Au Clusters Induced Tumor Cells Apoptosis via Targeting Glutathione Peroxidase-1: The Molecular Dynamics Assisted Experimental Studies” (Scientific Reports, 2017).

How the values were obtained:
A549 cells [1] = test: Cellular location observed by CLSM; format: cell-based, human; conditions: 800 µM Au, 48 h, live A549 cells
Procedure: A549 cells were seeded on glass-bottom dishes (35 mm, MatTek Corporation) for confocal laser scanning microscopy (CLSM) observation. After 24 h, Au25P1_9 was added to culture medium and the final Au dose was 800 µM. The A549 cells were next exposed to Au25P1_9 for 48 h. Then the cells were washed three times with PBS and incubated with 10 µg/mL Hoechst 33342 at 37 °C under darkness for 10 min. Before observation, the culture medium was discarded and the cells were washed three times with PBS, supplemented with fresh culture medium. Finally, in A549 cells, the cell nucleus and Au25P1_9 were imaged under Nikon Ti-e microscope with excitation at wavelengths of 405 nm and 560 nm, respectively. To identify the accurate location of Au25P1_9 in cytoplasm of A549 cells, lysotracker green, a lysosome probe, was added in the medium after cells were incubated with Au25P1_9 for 48 h. The cells were then observed by CLSM with excitation at wavelengths of 488 nm and 560 nm, respectively.

A549 cells [2] = test: Mitochondrial membrane potential assay (JC-1); format: cell-based, human; conditions: 800 µM Au, 48 h, JC-1, CLSM
Procedure: Disruption of ΔΨm is an important step in the induction of cellular apoptosis. JC-1, a sensitive mitochondrial dye, was used to evaluate the ΔΨm. JC-1 can aggregates in the mitochondrial matrix to yield red fluorescence (λem = 590 nm) at high mitochondrial membrane potential, while JC-1 monomer has green fluorescence at low mitochondrial membrane potential (λem = 527 nm). Therefore, using JC-1 easily signals the loss of ΔΨm, an event of early cell apoptosis. After treated with 800 µM of Au25P1_9 for 48 h on glass-bottom dish, cells were stained with JC-1 at 37 °C for 20 min under darkness. Then, cells were washed twice with cold buffer solution and JC-1 fluorescence inside cells was immediately observed by CLSM.

**Q.** Which cellular location (A549 cells [1]) does the source give for “CCYGGPEEEEEVG [Au25P1_9, Au25 cluster coated by nine P1 peptides (…)]” here?
**A.** Its cellular location is “red emission can be observed in the cytoplasm of live A549 cells”.

**Q.** And the “mitochondrial membrane potential change” value (A549 cells [2])?
**A.** Its value is “a red to green emission shift can be observed in most cells after treated with Au25P1_9, indicating mitochondria depolarization”.
